# Experimental data as given in publication PMC12005229, “Final results from the phase Ia/Ib study of the novel bromodomain and extra-terminal domain inhibitor, BI 894999, in patients with advanced solid tumors or diffuse large B-cell lymphoma” (ESMO Open, 2025).
# System: HEXIM1, HIST2H2BF, and CCR2
# Assay: NanoString gene expression in blood (target engagement)
# Assay type: in vivo, human
# Procedure: The evaluation of biomarkers to identify patient subgroups with differential prognosis or response to treatment was exploratory, with no formal endpoints defined. Blood samples were assessed using an in-house-designed NanoString panel (NanoString, Seattle, WA) measuring gene expression levels of HEXIM1, HIST2H2BF, and CCR2 over all time points, and postdose expression levels of HEXIM1, HIST2H2BF, and CCR2 on days 14 and 15. HEXIM1 is modulated by BET family proteins and is considered a robust pharmacodynamic marker of BET inhibition,[30] whereas HIST2H2BF and CCR2 are involved in cancer pathways.[31]^,[32]
# Total RNA was extracted from whole blood using PAXgene Blood RNA kit (Qiagen, Hilden, Germany) following the manufacturer’s instructions. Total RNA was quantified by direct absorbance measurement at 260 nm using a NanoDrop Spectrophotometer (Thermo Fisher, Waltham, MA). Quality check was carried out by additional measurement of absorbance at 280 nm and calculation of the absorbance ratio OD260/OD280.
# mRNA expression was assessed using a custom nCounter® (NanoString, Seattle, WA) codeset generated for the genes of interest plus housekeeping genes. Probes were hybridized to 150 ng of total RNA for 19 h at 65°C and applied to the nCounter® Preparation Station for automated removal of excess probe and immobilization of probe–transcript complexes on a streptavidin-coated cartridge. Data were collected using the nCounter® Digital Analyzer by counting the individual barcodes. Data were analyzed using an in-house analysis pipeline that follows the latest NanoString Technologies standards for the analysis of nCounter® data. The analysis pipeline includes quality checking of the raw data using the NAnostring quality Control dasHbOard (NACHO), a comprehensive method to optimize the quality control of nCounter® data.[33] The housekeeping genes ACTB, GAPDH, HPRT1, MGAT1, and TMED9 were used for normalization.
structure (smiles),measurement,setting,value
CNc1nc(-c2nc3ccc(N4CCN(C)CC4)cc3n2Cc2ccccc2)cn2c(C)nnc12 [BI 894999],target engagement (≥2 of 3 genes with twofold or greater change),phase Ia DLBCL patient blood samples,target engagement was seen at all dose levels
same,"HEXIM1 induction, median fold change from baseline","phase Ib, NUT carcinoma, blood",1.93
same,target engagement (≥2 of 3 genes with twofold or greater change),"phase Ib, blood samples from the various solid tumor entities",all showed target engagement
